Measured values published in publication PMC2866756 (Antiviral research, 2010).
Where two headings read alike, the source gives them in different places. Marks after values point to notes of the source that are not given here. Blank lines part the entries; values can stand above or below the molecule they belong to.

Key:
[1] = Tolerability in SCID-Hu mice
VZV [2] = assay: Antiviral assay, VZV yield by infectious focus; type: cell-based, Varicella-zoster virus; settings: for Selective Index: cytotoxic dose divided by the EC50 (plaque assay)
VZV-BAC-Luc [3] = assay: Skin organ culture; type: cell-based, Varicella-zoster virus; settings: for antiviral effects in SOC compared with cultured HFFs: 2 dpi, same concentrations as in HFFs (EC99 doses); for effect on total flux in skin explants: SOC, EC99 doses: 400 μM acyclovir, 1 mM PAA, 1 mM L-mimosine, 50 μM DRB, 20 μM aphidicolin, 20 μM aloisine A, 20 μM purvalanol A, 25 μM roscovitine
VZV [4] = assay: Attempt to isolate roscovitine-resistant VZV by continuous culture; type: cell-based, Varicella-zoster virus; settings: 10 weeks of continuous culture at doses below the EC50, authors' observations
VZV-BAC-Luc [5] = type: in vivo, Varicella-zoster virus; settings: for effect on VZV growth rate in vivo: SCID-Hu mice, dose groups combined, 3 experiments
skin tissue = settings: skin organ culture; ref Taylor and Moffat, 2005; cited from earlier work
VZV [6] = settings: ref Taylor et al., 2004; cited from earlier work
HFFs = settings: for Cell Growth Arrest Dose: lowest dose for which absorbance at 48 h was the same as at 0 h
VZV [7] = assay: Antiviral assay, VZV genome copy number by quantitative PCR; type: cell-based, Varicella-zoster virus; settings: read-out: VZV EC50 (qPCR)
[8] = 0.7 mg/kg/day, s.c. osmotic pump, 7 days
[9] = 1.5 mg/kg/day, s.c. osmotic pump, 7 days
[10] = 2.8 mg/kg/day, s.c. osmotic pump, 7 days
[11] = 4.3 mg/kg/day, s.c. osmotic pump, 7 days
[12] = Human alphaherpesvirus 3, MeWo, 48 h, read-out: VZV EC50 (titer)
[13] = subconfluent HFFs, 48 h, fold change less than 1, * = solubility limit
[14] = read-out: VZV EC50 (titer), HFFs, 48 h, titered on MeWo cells
[15] = HFFs, 48 h, ORF38 copies normalized to β-globin

SMILES: CC[C@H](CO)Nc1nc(NCc2ccccc2)c2ncn(C(C)C)c2n1 (racemic) [Roscovitine (racemic), Roscovitine]
Mortality [1, 8]: 0/5 | ABWD [1, 9]: −0.10 grams | Mortality [1, 9]: 0/4 | ABWD [1, 10]: −1.60 grams | Mortality [1, 10]: 0/7 | ABWD [1, 11]: 0.36 grams | Mortality [1, 11]: 0/5 | EC50 (VZV [2]; [12]): 4 µM | antiviral effects in SOC compared with cultured HFFs (VZV-BAC-Luc [3]): similar | effect on total flux in skin explants (VZV-BAC-Luc [3]): reduced the total flux | isolation of a resistant strain of VZV (VZV [4]): failed | Avg. VZV Growth Rate (VZV-BAC-Luc [5]; [8]): 0.13 Log10 photons/sec/day | Avg. VZV Growth Rate (VZV-BAC-Luc [5]; [9]): 0.12 Log10 photons/sec/day | Avg. VZV Growth Rate (VZV-BAC-Luc [5]; [10]): 0.24 Log10 photons/sec/day | Avg. VZV Growth Rate (VZV-BAC-Luc [5]; [11]): 0.26 Log10 photons/sec/day | effect on VZV growth rate in vivo (VZV-BAC-Luc [5]): significantly reduced VZV growth rates | cytotoxicity by histopathological analysis of skin tissue (skin tissue): neither DMSO nor roscovitine was cytotoxic | reversibility of antiviral effect (VZV [6]): reversible

EC50 (VZV [7]; Human alphaherpesvirus 3, 48 h): 5 µM
SMILES: Nc1nc2c(ncn2COCCO)c(=O)[nH]1 [Acyclovir]
tolerance in Neutral Red assay (HFFs): tolerated up through the limit of their solubility | Cytotoxic Dose (HFFs; human, 48 h): 1.0 × 10^3* μM | EC50 (VZV [2]; [12]): 4 µM

SMILES: CCCCc1c(-c2ccc(O)cc2)[nH]c2nccnc12 [Aloisine A]
tolerance in Neutral Red assay (HFFs; HFFs, culture medium at 37°C): tolerated up through the limit of their solubility | Cell Growth Arrest Dose (HFFs; HFFs): 20 µM | EC50 (VZV [2]; [12]): 2.5 µM | EC50 (VZV [2]; Human alphaherpesvirus 3, read-out: EC50 values): 2 to 4 µM | antiviral effects in SOC compared with cultured HFFs (VZV-BAC-Luc [3]): much lower | effect on total flux in skin explants (VZV-BAC-Luc [3]): increased | EC50 (VZV [7]; Human alphaherpesvirus 3, 48 h): 2 µM

SMILES: C[C@@]1(CO)[C@H](O)CC[C@@]2(C)[C@H]1CC[C@H]1C[C@@H]3C[C@@]12CC[C@]3(O)CO [Aphidicolin]
tolerance in Neutral Red assay (HFFs; HFFs, culture medium at 37°C): tolerated up through the limit of their solubility | Selective Index (VZV [2]): 833 | antiviral effects in SOC compared with cultured HFFs (VZV-BAC-Luc [3]): similar | effect on total flux in skin explants (VZV-BAC-Luc [3]): reduced the total flux

concentration with no effect in Neutral Red assay (HFFs; HFFs, 48 h): up to 150 mM | EC50 (VZV [2]; [14]): 75000 µM
SMILES: C[S+](C)[O-] [DMSO, Dimethylsulfoxide]
effect on cell growth (HFFs; HFFs, 400 mM): inhibited cell growth slightly | Cytotoxic Dose (HFFs; [13]): >400000 µM

SMILES: OC[C@H]1O[C@@H](n2cnc3cc(Cl)c(Cl)cc32)[C@H](O)[C@@H]1O [DRB, Dichloro-β-D-ribofurano-sylbenzimidazole]
Cell Growth Arrest Dose (HFFs; HFFs): 50 µM | EC50 (VZV [2]; [14]): 5 µM | antiviral effects in SOC compared with cultured HFFs (VZV-BAC-Luc [3]): similar | effect on total flux in skin explants (VZV-BAC-Luc [3]): reduced the total flux | EC50 (VZV [7]; [15]): 2 µM

SMILES: N[C@@H](Cn1ccc(=O)c(O)c1)C(=O)O [L-mimosine]
Cell Growth Arrest Dose (HFFs; HFFs): 300 µM | Cytotoxic Dose (HFFs; human, 48 h): 3000 µM | EC50 (VZV [2]; [12]): 70 µM | Selective Index (VZV [2]): 43 | antiviral effects in SOC compared with cultured HFFs (VZV-BAC-Luc [3]): similar | effect on total flux in skin explants (VZV-BAC-Luc [3]): reduced the total flux | EC50 (VZV [7]; Human alphaherpesvirus 3, 48 h): 50 µM

EC50 (VZV [2]; [12]): 300 µM | EC50 (VZV [7]; Human alphaherpesvirus 3, 48 h): 500 µM
SMILES: O=C(O)CP(=O)(O)O [Phosphonoacetic acid (PAA), Phosphonoacetic acid]
Cytotoxic Dose (HFFs; human, 48 h): 15000 µM

SMILES: CC(C)[C@H](CO)Nc1nc(Nc2cccc(Cl)c2)c2ncn(C(C)C)c2n1 [Purvalanol A]
Cell Growth Arrest Dose (HFFs; HFFs): 10 µM | Cytotoxic Dose (HFFs; [13]): 20 µM | ABWD ([1]; 20 mg/kg/day, daily i.p. injection): −2.96 grams | tolerability in mice ([1]; i.p. injection, 20 or 10 mg/kg/day): not as well tolerated as roscovitine | Selective Index (VZV [2]): 570 | antiviral effects in SOC compared with cultured HFFs (VZV-BAC-Luc [3]): much lower | effect on total flux in skin explants (VZV-BAC-Luc [3]): increased | Avg. VZV Growth Rate (VZV-BAC-Luc [5]; 10 mg/kg/day, daily i.p. injection): 0.37 Log10 photons/sec/day | effect on VZV growth rate in vivo (VZV-BAC-Luc [5]): not effective at reducing the rate of VZV growth | effect on VZV growth rate in vivo (VZV-BAC-Luc [5]; listed as purvalanol A): No difference

SMILES: CC[C@H](CO)Nc1nc(NCc2ccccc2)c2ncn(C(C)C)c2n1 [R-Roscovitine]
EC50 (VZV [2]; [12]): 3.5 µM | EC50 (VZV [7]; Human alphaherpesvirus 3, 48 h): 3 µM

SMILES: CC[C@@H](CO)Nc1nc(NCc2ccccc2)c2ncn(C(C)C)c2n1 [S-Roscovitine]
EC50 (VZV [2]; [14]): 2.5 µM | EC50 (VZV [7]; [15]): 1 µM

SMILES: CN[C@@H]1C[C@H]2O[C@@](C)([C@@H]1OC)n1c3ccccc3c3c4c(c5c6ccccc6n2c5c31)C(=O)NC4 [staurosporine]
live cells after treatment (HFFs; HFFs, 35 nM, positive control for cell death): No live cells were detected
